{"source": "patent US8399442B2", "about": "“Pharmaceutical compounds” (priority 2005, dated 2013)", "key": {"[1]": {"experiment": "Physicochemical parameters (pKa, logP, logD)"}, "[2]": {"experiment": "physchem", "conditions": "water, thermodynamic from solid"}, "[3]": {"experiment": "physchem", "conditions": "water"}, "[4]": {"biological_target": "T1, Chk2 (Homo sapiens, UniProt O96017)", "T1 construct": "purchased Upstate Discovery Ltd", "T1 sequence (O96017 whole entry)": "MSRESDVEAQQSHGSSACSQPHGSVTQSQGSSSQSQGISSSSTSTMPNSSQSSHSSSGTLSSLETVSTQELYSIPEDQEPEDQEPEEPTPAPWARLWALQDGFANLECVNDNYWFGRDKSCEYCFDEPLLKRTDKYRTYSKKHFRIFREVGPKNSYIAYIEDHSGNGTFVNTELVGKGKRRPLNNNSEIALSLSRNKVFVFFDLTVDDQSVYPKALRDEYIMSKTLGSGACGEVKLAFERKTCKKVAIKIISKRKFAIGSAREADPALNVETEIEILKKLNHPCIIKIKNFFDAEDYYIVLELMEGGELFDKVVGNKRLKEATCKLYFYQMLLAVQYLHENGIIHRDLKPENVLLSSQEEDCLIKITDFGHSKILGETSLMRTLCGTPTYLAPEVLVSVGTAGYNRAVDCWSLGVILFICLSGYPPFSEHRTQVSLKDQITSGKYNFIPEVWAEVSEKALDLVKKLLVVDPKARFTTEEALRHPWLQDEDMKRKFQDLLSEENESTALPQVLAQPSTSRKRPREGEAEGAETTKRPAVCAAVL", "experiment": "Kinase inhibitory activity assay (Upstate, 33P-ATP)", "format": "biochemical", "conditions": "read-out: Inhibition of kinases in vitro, % at 30 nM", "description": "Where inhibition was high an IC50 was determined."}, "[5]": {"test_system": "primary human mammary epithelial cells", "conditions": "24 h"}}, "note": "Counter-ions that a name gives are not always drawn.", "data": [{"molecule": "1-(2,6-difluorophenyl)-N-[3-(5-morpholin-4-ylmethyl-1H-benzimidazol-2-yl)-1H-pyrazol-4-yl]-urea", "values": [{"measurement": "logP", "setting": "[1]", "value": 3.24}, {"measurement": "logPion", "setting": "[1]", "value": 0.36}, {"measurement": "logD", "setting": "[1]; pH=6", "value": 2.27}, {"measurement": "logD", "setting": "[1]; pH=6.5", "value": 2.68}, {"measurement": "logD", "setting": "[1]; pH=7.4", "value": 3.11}]}, {"molecule": "O=C(Nc1c[nH]nc1-c1nc2cc(CN3CCOCC3)ccc2[nH]1)Nc1c(F)cccc1F", "note": "(as salt: hydrochloride) [1-(2,6-difluorophenyl)-N-[3-(5-morpholin-4-ylmethyl-1H-benzimidazol-2-yl)-1H-pyrazol-4-yl]-urea]", "values": [{"measurement": "melting point", "value": 190, "unit": "°C"}]}, {"molecule": "O=C(Nc1c[nH]nc1-c1nc2cc(CN3CCOCC3)ccc2[nH]1)NC1CC1", "note": "[Acetate]", "values": [{"measurement": "solubility", "setting": "[2]", "value": "> 100", "unit": "mg/mL"}, {"measurement": "solubility", "setting": "[3]; thermodynamic from solid", "value": "> 25", "unit": "mg/mL"}]}, {"molecule": "O=C(Nc1c[nH]nc1-c1nc2cc(CN3CCOCC3)ccc2[nH]1)NC1CC1", "note": "[D-Gluconate]", "values": [{"measurement": "solubility", "setting": "[3]; thermodynamic from solid", "value": "> 25", "unit": "mg/mL"}]}, {"molecule": "O=C(Nc1c[nH]nc1-c1nc2cc(CN3CCOCC3)ccc2[nH]1)NC1CC1", "note": "[D-Glucuronate]", "values": [{"measurement": "solubility", "setting": "[2]", "value": "> 100", "unit": "mg/mL"}, {"measurement": "solubility", "setting": "[3]", "value": "> 25", "unit": "mg/mL"}, {"measurement": "solubility at 20 h", "setting": "[3]; thermodynamic from solid", "value": "> 50", "unit": "mg/mL"}]}, {"molecule": "O=C(Nc1c[nH]nc1-c1nc2cc(CN3CCOCC3)ccc2[nH]1)NC1CC1", "note": "[compound of formula (I^0)]", "values": [{"measurement": "inhibition at 0.03 µM", "setting": "[4]", "value": 41, "unit": "%"}, {"measurement": "effect of treatment on normal cells cf. tumor cells", "setting": "[5]", "value": "fewer become multinucleated or die after treatment, but instead undergo reversible G2/M arrest"}]}]}
